From US20110123483A1, “HMGB1 FOR CANCER TREATMENT” (DEUTSCHES KREBSFORSCHUNGSZENTRUM, priority 2009, published 2011)

Key:
[1] = system: U251MG glioblastoma cells; assay: Cytotoxicity assay, cell survival by crystal violet staining; type: cell-based, human
Procedure: 20,000 U251MG glioblastoma cells or human astrocytic cells (ScienCell) were plated into 96-well plates. After 24 h cells were treated with rhHMGB1 (Sigma Aldrich) or rat recombinant HMGB1 (generously provided by Angelika Bierhaus, Heidelberg, Germany), and TRAIL (for 24 h) or Temozolomide (for 72 h) alone or in combination, respectively. […] Cell proliferation was assessed by seeding 50,000 U251 MG cells in 6 cm culture plates and treatment with rhHMGB1, followed by counting the cells in a Neubauer chamber at day 0, 2, 4 and 5.

[2] = system: NCH421 K glioblastoma stem-cell-like cells; assay: Trypan blue vital stain, counting blue cells in a Neubauer chamber; type: cell-based; settings: 80 nM, 24 h, p<0.05
Procedure: Trypan blue influx into NCH421 K glioblastoma multiforme stem-cell-like cells was […] culture flasks and then incubating them for 10 min with 1:1,000 trypan blue solution. […] Glioblastoma stem-cell-like cell line NCH421K was maintained in BIT (bovine serum albumine, insulin, transferring)-medium (DMEM HAMS F12+1% P/S+1% L-glutamin+10 ml BIT+EGF (20 ng/ml)+BFGF (20 ng/ml)).

[3] = system: NCH421 K glioblastoma stem-cell-like cells; assay: Cell morphology / spheroid cell aggregates; type: cell-based; settings: FIG. 12B
U251 MG cells = assay: Subcellular fractionation and Western blot: cytochrome c release, caspase 3 cleavage; type: cell-based, human; settings: rhHMGB1 80 nM, 24 h (FIG. 6)
Procedure: The U251 MG tumor cells were lysed in lysis buffer containing 20 mmol/L Tris-HCl (pH 7.4), 137 mmol/L NaCl, 10% (v/v) glycerine, 1% Triton X-100, 2 mmol/L EDTA, 100 mmol/L phenylmethylsulfonyl fluoride, and protease inhibitors (Complete mini; Roche Molecular Biochemicals). For the detection of phosphoprotein levels, 10 mmol/L NaPPi, 50 mmol/L NaF, and 20 mmol/L NaVO4 were added to the lysis buffer. After 15 min incubation on ice, the lysates were centrifuged at 14,000×g for 10 min. The total protein concentration of the lysates was measured using the Bradford assay (Bio-Rad). Soluble protein (25-100 μg per lane) was separated on 10% to 15% polyacrylamide gels and blotted onto nitrocellulose by standard procedures. The membranes were washed, incubated with primary antibody as indicated: mouse anti-human caspase-3 (1:500, Imgenex, San Diego, Calif.); polyclonal rabbit anti-human phosphorylated p44/42 mitogen-activated protein kinase and polyclonal rabbit anti-human phosphorylated stress-activated protein kinase/JNK (1:1,000, Cell Signaling Technology, Inc.); polyclonal anti-rabbit JNK 54/46 (1:1,000, Cell Signaling Technology, Inc.); polyclonal rabbit anti-human IkBalpha (1:500, Santa Cruz Biotechnology, Inc.); mouse monoclonal anti-human BNIP3 (1:10,000, R&D Systems, Inc.); mouse monoclonal anti-human phosphorylated-histone H2A.X (Upstate, Inc.); mouse monoclonal anti-human cytochrome c (1:100, BD Biosciences Pharmingen GmbH, Heidelberg, Germany); mouse anti-human cytochrome c oxidase complex IV (1:100, Molecular Probes, Invitrogen, Karlsruhe, Germany); polyclonal rabbit antimalondialdehyde (1:250, Calbiochem, Merck, Darmstadt, Germany) and mouse monoclonal antibodies to β-tubulin or β-actin (1:3,000, Sigma Chemical Co., St. Louis, Mo.), washed, and incubated with the appropriate secondary antibody (1:3,000; horseradish peroxidase-conjugated, Bio-Rad). Bound antibodies were visualized using an enhanced chemiluminescence detection system (GE-Healthcare, Uppsala, Sweden).
Enrichment of mitochondrial fractions was performed using the ApoAlert Cell Fractionation Kit (Clontech, Mountain View, Calif.) as described previously (Gdynia et al., 2008). Briefly, after centrifugation and several washing steps, the cell pellet was resuspended in ice-cold 1× Fractionation Buffer Mix containing protease inhibitors (Complete mini; Roche Molecular Biochemicals, Indianapolis, Ind.) and 1 mM 1,4-Dithio-DL-threitol solution (DTT). After 10 min incubation on ice, cells were homogenized with a dounce tissue grinder. Efficiency of homogenization was controlled by microscopy. The homogenate was centrifuged at 700×g for 10 min at 4° C. and the resulting supernatant at 10,000×g for 25 min at 4° C. […]

U251MG cells = assay: Megamitochondria formation, COX IV immunofluorescence and electron microscopy; type: cell-based, human
Procedure: U251MG cells were plated onto 8 well chamber-slides (Nunc, Wiesbaden, Germany) or grown confluently in 6 cm culture dishes containing round glass cover plates. For some samples, the cells were stained with the fluorescent dye MitoTracker Red CMXRos (50 nM, Molecular Probes, Invitrogen, Karlsruhe, Germany) for 30 min at 37° C. 24 h after seeding, the cells were fixed for 15 min with 2% paraformaldehyde solution or pre-cooled 100% methanol (on ice), washed 3× with PBS, permeabilized on ice with PBS containing 0.2% TritonX-100 and 1% fetal calf serum for 5 min and washed again three times with PBS containing 1% or 5% FCS. After blocking with PBS containing 1% or 5% FCS at room temperature for 60 min, permeabilized cells were incubated with monoclonal rabbit fluoro-conjugated anti-COX IV antibody (1:10, 3E11, Alexa Fluor 488 conjugate, Cell Signaling) or monoclonal mouse anti-polyhis-tag antibody (1:1000, R&D Systems) for 30 min at 4° C. and then washed three times with PBS with 1% or 5% FCS. In case the primary antibody was unconjugated to a fluorescent dye, goat anti-mouse or anti-rabbit secondary antibody Alexa Fluor® 488 or […] (1:200, Invitrogen GmbH, Karlsruhe, Germany) together with 1 μg/ml 4′,6-Diamidino-2-phenylindol (DAPI) was added for 30 min at 4° C. in a dark chamber. After washing three times with PBS with 1% or 5% FCS, cells were covered with cover slips. Photomicrographs were taken using a Olympus VANOX-T (AH-2) fluorescence microscope with immersion oil, ne 23=1.518 and the Soft Imaging System AnalysisB software (Leica Microsystems, Wetzlar, Germany) or on a confocal microscope (Leica SP2).
Cells were fixed in situ with 2.3% glutaraldehyde in 50 mM sodium cacodylat (pH 7.2) for 30 min at 4° C., scraped from the plates, collected by low-speed centrifugation at 200×g for 10 min at 4° C. and successively stained with 2% osmium tetroxide and 0.5% uranyl acetate. After dehydration and embedding in Epru the probes were processed for ultrathin section. Micrographs were taken with a Zeiss EM-10A electron microscope at 80 kV. The magnification indicator was routinely controlled by the use of a grating replica.

## rhHMGB1: recombinant human High Mobility Group B1 protein (Sigma Aldrich)
[1]; 4 nM rhHMGB1 and TRAIL, 24 h (FIG. 1C)
  cell death, combined treatment with TRAIL: strong synergistic induction of cell death
[1]; 4 nM rhHMGB1 and temozolomide, 72 h (FIG. 1C)
  cell death, combined treatment with Temozolomide: strong synergistic induction of cell death
[1]; 80 nM, after 48 h
  cell death: substantial cell death
[1]; 72 h (FIG. 1B)
  susceptibility to rhHMGB1-induced cell death: susceptible
[2]
  trypan blue influx versus control: 7±1 fold increase
[3]
  anti-proliferative effect, spheroid cell aggregates: clearly smaller and fewer spheroid cell aggregates
U251 MG cells
  activation of caspase 3: neither activation of caspase 3
  release of cytochrome c: nor release of cytochrome c was observed
U251MG cells; FIG. 8C
  formation of megamitochondria, COX IV immunofluorescence: generation of extremely enlarged spherical mitochondria
U251MG cells; FIG. 10
  autophagosomes or rupture of the outer cell membrane, electron microscopy: not observed
  number and size of megamitochondria, electron microscopy: increased in a time- and concentration-dependent manner
U251MG cells; after rhHMGB1 treatment
  typical morphological features of apoptosis (membrane blebbing, apoptotic bodies, chromatin condensation): could not be detected
